According to ChEMBL document CHEMBL4842390, “Amino-Heterocycle Tetrahydroisoquinoline CXCR4 Antagonists with Improved ADME Profiles via Late-Stage Buchwald Couplings” (ACS Med Chem Lett, 2021):
Active and inactive are the calls of the source. No cut-off for these calls is given here.

Key:
[1] = Permeability of the compound at pH 7.4 incubated for 4 hrs by PAMPA; type: ADME; conditions: read-out: permeability
[2] = Metabolic stability in human liver microsomes assessed as parent compound remaining incubated for 10 mins in presence of NADPH; type: ADME, Microsome; conditions: read-out: Stabilty
[3] = Volume of distribution in CD-1 mouse at 30 mg/kg, po or at 3 mg/kg, iv by UPLC-MS/MS analysis; type: ADME, organism-based; conditions: in vivo
[4] = target: T1, C-C chemokine receptor type 6 (Homo sapiens) (UniProt P51684); test: Antagonist activity at CCR6 (unknown origin) assessed as inhibition of ligand-induced calcium flux measured upto 10 uM; type: functional; conditions: dose microM <=10
T1 sequence (whole entry): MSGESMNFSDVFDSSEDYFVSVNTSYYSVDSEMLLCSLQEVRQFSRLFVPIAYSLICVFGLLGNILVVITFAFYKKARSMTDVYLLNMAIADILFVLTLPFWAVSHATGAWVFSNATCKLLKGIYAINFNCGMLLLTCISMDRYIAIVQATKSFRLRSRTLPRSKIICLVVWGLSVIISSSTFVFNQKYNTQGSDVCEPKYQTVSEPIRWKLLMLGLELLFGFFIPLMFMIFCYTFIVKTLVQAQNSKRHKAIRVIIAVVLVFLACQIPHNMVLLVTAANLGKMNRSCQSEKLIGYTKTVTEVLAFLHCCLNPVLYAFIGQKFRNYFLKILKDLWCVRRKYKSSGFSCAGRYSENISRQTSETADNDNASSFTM

[5] = target: Voltage-gated inwardly rectifying potassium channel KCNH2 (Homo sapiens, UniProt Q12809); test: Inhibition of human ERG by automated patch clamp method
[6] = Metabolic stability in mouse liver microsomes assessed as parent compound remaining incubated for 10 mins in presence of NADPH; type: ADME, Microsome; conditions: read-out: Stabilty
Cytochrome P450 2D6 = Cytochrome P450 2D6 (Homo sapiens, UniProt P10635); test: Inhibition of human recombinant CYP2D6 expressed in insect cells using AMMC as substrate preincubated for 30 mins followed by NADPH regenerating system addition and measured after 45 mins by fluorescence based assay; type: ADME
[7] = target: C-C chemokine receptor type 5 (Homo sapiens) (UniProt P51681); test: Antagonist activity at CCR5 (unknown origin) assessed as inhibition of ligand-induced calcium flux measured upto 10 uM; type: functional; conditions: dose microM <=10
[8] = target: T2, C-C chemokine receptor type 4 (Homo sapiens) (UniProt P51679); test: Antagonist activity at CCR4 (unknown origin) assessed as inhibition of ligand-induced calcium flux measured upto 10 uM; type: functional; conditions: dose microM <=10
T2 sequence (whole entry): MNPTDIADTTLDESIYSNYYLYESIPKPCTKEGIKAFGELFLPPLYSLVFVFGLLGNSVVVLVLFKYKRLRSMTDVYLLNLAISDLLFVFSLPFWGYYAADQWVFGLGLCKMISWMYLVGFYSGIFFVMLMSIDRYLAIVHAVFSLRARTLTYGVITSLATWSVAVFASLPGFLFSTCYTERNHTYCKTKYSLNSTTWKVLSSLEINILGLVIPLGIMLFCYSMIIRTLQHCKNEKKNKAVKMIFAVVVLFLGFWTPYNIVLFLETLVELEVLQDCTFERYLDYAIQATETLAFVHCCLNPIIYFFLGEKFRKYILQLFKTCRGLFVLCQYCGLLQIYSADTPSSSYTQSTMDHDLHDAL

[9] = target: T3, C-X-C chemokine receptor type 1 (Homo sapiens) (UniProt P25024); test: Antagonist activity at CXCR1 (unknown origin) assessed as inhibition of ligand-induced calcium flux measured upto 10 uM; type: functional; conditions: dose microM <=10
T3 sequence (whole entry): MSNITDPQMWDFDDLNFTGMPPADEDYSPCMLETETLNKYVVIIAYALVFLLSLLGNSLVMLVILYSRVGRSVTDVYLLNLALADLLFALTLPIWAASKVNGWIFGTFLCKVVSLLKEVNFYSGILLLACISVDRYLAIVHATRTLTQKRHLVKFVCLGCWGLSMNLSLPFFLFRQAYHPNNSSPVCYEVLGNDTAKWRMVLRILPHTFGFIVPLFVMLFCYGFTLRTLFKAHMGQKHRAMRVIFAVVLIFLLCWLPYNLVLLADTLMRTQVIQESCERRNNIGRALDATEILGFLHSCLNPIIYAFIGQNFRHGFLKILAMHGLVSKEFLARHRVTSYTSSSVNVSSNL

[10] = target: T4, C-X-C chemokine receptor type 3 (Homo sapiens) (UniProt P49682); test: Antagonist activity at CXCR3 (unknown origin) assessed as inhibition of ligand-induced calcium flux measured upto 10 uM; type: functional; conditions: dose microM <=10
T4 sequence (whole entry): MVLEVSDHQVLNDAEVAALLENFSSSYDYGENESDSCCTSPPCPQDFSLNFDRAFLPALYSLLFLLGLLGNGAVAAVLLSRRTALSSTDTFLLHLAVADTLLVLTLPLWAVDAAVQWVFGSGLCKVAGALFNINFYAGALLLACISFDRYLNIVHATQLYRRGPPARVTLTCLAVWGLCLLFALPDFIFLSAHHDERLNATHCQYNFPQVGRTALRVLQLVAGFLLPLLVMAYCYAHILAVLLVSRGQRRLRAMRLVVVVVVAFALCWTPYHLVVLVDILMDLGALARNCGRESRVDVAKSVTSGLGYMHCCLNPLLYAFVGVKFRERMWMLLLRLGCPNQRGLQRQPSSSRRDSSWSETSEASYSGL

cells = conditions: Homo sapiens, CCRF-CEM
Description: Antagonist activity at muscarinic acetylcholine receptor in human CCRF-CEM cells assessed as inhibition of acetylcholine-induced calcium release preincubated for 25 mins followed by acetylcholine addition and monitered for 90 sec

[11] = Cmax in CD-1 mouse at 30 mg/kg, po or at 3 mg/kg, iv by UPLC-MS/MS analysis; type: ADME, organism-based; set-up: dose 30 mg/kg; conditions: in vivo
[12] = Clearance in CD-1 mouse at 30 mg/kg, po or at 3 mg/kg, iv by UPLC-MS/MS analysis; type: ADME, organism-based; conditions: in vivo
Cytochrome P450 3A4 = Cytochrome P450 3A4 (Homo sapiens, UniProt P08684); test: Inhibition of CYP3A4 (unknown origin); type: ADME
[13] = Oral bioavailability in CD1 mouse at 30 mg/kg measured after 8 hrs by LC-MS/MS analysis; type: ADME, organism-based; conditions: in vivo
[14] = target: T5, C-X-C chemokine receptor type 2 (Homo sapiens) (UniProt P25025); test: Antagonist activity at CXCR2 (unknown origin) assessed as inhibition of ligand-induced calcium flux measured upto 10 uM; type: functional; conditions: dose microM <=10
T5 sequence (whole entry): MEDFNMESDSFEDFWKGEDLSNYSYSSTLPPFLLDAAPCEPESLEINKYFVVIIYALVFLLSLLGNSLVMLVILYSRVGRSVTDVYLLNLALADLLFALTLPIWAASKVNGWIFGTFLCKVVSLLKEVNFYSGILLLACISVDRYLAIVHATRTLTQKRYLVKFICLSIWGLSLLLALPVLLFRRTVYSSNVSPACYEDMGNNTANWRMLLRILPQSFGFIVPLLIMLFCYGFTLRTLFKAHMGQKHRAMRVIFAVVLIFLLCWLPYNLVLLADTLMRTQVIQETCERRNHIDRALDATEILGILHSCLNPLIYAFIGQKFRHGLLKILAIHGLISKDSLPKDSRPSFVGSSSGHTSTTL

[15] = target: T6, C-C chemokine receptor type 7 (Homo sapiens) (UniProt P32248); test: Antagonist activity at CCR7 (unknown origin) assessed as inhibition of ligand-induced calcium flux measured upto 10 uM; type: functional; conditions: dose microM <=10
T6 sequence (whole entry): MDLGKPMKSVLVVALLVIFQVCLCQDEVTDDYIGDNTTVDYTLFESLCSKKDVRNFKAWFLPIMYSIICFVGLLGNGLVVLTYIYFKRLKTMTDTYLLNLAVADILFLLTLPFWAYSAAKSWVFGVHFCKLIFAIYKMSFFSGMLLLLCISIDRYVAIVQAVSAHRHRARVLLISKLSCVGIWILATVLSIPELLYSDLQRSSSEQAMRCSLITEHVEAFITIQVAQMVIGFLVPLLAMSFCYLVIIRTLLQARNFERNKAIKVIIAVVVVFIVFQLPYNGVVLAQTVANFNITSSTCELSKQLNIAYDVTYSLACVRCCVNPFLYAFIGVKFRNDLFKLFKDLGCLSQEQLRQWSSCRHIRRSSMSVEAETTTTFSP

[16] = C8h in CD-1 mouse at 30 mg/kg, po or at 3 mg/kg, iv measured up to 8 hrs by UPLC-MS/MS analysis; conditions: in vivo
[17] = target: C-X-C chemokine receptor type 4 (Homo sapiens, UniProt P61073); test: Antagonist activity at CXCR4 receptor in human CCRF-CEM cells assessed as inhibition of SDF-1alpha-induced calcium release preincubated for 25 mins followed by SDF-1alpha addition and monitered for 90 sec; type: functional, cell-based
[18] = Metabolic stability in rat liver microsomes assessed as parent compound remaining incubated for 10 mins in presence of NADPH; type: ADME, Microsome; conditions: read-out: Stabilty
[19] = Half life in CD1 mouse at 30 mg/kg, po or at 3 mg/kg, iv measured after 8 hrs by LC-MS/MS analysis; type: ADME, organism-based; conditions: in vivo
[20] = AUC (0 to t) in CD-1 mouse at 30 mg/kg, po or at 3 mg/kg, iv measured after 8 hrs by LC-MS/MS analysis; type: ADME, organism-based; set-up: time 8 hrs, dose 30 mg/kg; conditions: in vivo

Sequence of C-X-C chemokine receptor type 4 (P61073 whole entry): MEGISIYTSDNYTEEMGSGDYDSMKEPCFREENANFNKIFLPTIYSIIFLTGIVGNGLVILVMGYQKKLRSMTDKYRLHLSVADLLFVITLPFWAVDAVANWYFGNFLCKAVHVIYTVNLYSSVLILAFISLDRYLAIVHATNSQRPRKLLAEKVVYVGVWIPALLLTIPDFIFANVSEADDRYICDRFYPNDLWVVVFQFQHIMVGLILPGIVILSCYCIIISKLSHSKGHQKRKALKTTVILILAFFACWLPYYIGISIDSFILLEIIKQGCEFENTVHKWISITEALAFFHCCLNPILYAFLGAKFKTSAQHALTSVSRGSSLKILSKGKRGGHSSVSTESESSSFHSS
Sequence of Voltage-gated inwardly rectifying potassium channel KCNH2 (Q12809 whole entry): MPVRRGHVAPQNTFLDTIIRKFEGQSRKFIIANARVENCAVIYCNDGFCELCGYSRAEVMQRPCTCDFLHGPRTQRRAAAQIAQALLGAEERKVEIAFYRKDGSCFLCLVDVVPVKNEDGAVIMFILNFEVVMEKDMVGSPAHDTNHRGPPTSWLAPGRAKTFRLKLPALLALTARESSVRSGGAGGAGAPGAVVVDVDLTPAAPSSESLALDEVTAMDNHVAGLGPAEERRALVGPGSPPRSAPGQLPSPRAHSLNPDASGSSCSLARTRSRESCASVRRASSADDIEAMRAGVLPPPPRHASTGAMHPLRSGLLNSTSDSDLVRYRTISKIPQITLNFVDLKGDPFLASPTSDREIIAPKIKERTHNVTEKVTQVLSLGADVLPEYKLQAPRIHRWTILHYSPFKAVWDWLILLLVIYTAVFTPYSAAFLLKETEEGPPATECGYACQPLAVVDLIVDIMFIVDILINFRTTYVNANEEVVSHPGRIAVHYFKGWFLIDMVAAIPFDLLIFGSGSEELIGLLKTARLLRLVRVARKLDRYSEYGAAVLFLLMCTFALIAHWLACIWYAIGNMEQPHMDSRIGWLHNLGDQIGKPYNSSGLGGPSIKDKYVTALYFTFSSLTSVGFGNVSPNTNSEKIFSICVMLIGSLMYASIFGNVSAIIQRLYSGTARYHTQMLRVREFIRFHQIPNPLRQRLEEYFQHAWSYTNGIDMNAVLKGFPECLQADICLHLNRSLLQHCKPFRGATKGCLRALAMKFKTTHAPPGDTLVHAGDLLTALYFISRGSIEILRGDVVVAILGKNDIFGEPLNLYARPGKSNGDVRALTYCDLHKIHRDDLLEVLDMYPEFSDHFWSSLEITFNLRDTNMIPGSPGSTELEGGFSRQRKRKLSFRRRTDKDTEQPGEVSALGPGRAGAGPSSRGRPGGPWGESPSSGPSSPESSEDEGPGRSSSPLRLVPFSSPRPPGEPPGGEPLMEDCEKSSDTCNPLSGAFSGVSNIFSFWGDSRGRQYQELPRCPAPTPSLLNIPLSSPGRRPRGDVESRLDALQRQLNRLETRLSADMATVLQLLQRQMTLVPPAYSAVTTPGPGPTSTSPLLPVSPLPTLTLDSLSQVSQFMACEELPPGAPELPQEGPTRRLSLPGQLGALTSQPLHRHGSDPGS
Sequence of Cytochrome P450 3A4 (P08684 whole entry): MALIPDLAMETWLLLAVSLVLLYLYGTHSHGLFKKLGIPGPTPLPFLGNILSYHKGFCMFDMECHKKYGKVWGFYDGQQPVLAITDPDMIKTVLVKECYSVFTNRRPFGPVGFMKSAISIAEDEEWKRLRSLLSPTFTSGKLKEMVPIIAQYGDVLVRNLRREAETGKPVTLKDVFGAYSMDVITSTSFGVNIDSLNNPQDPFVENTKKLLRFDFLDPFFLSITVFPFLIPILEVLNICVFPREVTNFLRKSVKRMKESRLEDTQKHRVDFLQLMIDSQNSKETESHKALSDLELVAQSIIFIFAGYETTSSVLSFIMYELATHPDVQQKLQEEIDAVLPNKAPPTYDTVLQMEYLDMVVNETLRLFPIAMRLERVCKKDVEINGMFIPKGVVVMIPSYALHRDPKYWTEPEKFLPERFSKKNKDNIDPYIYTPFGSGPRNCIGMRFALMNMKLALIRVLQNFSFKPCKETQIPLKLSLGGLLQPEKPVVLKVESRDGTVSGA
Sequence of C-C chemokine receptor type 5 (Homo sapiens) (P51681 whole entry, looked up): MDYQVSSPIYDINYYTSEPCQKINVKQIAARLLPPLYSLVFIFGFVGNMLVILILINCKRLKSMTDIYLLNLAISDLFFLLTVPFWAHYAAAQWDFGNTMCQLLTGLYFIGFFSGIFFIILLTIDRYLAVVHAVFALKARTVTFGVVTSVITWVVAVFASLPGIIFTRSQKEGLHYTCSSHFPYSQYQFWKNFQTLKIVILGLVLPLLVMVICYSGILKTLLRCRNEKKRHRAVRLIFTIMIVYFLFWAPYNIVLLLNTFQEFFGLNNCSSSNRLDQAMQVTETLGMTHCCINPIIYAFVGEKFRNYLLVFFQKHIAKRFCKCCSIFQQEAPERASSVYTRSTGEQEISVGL
Sequence of Cytochrome P450 2D6 (P10635 whole entry): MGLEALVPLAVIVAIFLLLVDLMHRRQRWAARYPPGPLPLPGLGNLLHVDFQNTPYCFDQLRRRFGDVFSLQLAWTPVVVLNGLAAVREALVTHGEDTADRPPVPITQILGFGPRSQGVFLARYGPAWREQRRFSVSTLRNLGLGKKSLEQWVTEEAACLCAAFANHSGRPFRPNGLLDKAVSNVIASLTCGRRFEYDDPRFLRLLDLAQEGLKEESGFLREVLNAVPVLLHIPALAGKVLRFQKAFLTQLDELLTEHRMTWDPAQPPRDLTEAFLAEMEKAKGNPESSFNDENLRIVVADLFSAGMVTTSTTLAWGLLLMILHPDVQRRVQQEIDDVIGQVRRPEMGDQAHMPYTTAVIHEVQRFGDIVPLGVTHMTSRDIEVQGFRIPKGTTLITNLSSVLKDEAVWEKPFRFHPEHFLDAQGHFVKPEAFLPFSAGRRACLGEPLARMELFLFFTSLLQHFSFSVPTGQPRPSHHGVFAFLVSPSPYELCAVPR

Papp at 4 h [1]: 23.5 ×10⁻⁶ cm/s | remaining at 10 min [2]: 73.6% | Vd [3]: 9.35 L/kg | Activity [4]: inactive | remaining at 10 min [6]: 85.8% | IC50 (Cytochrome P450 2D6): > 20 µM | Activity [7]: inactive | Activity [8]: inactive | Activity [9]: inactive | Activity [10]: inactive | IC50 (cells): > 16.7 µM | Cmax [11]: 791 ng/mL | clearance [12]: 30.5 mL/min/kg | IC50 (Cytochrome P450 3A4): > 20 µM | bioavailability [13]: 24% | Activity [14]: inactive | Activity [15]: inactive | C8h at 8 h [16]: 297 ng/mL | IC50 [17]: 47.4 nM | remaining at 10 min [18]: 21% | half-life [19]: 210 min | AUC(0-t) at 8 h [20]: 4000 ng·h/mL
Structure (SMILES): CN1CCN(Nc2cccc3c2CC(CN(C)[C@H]2CCCc4cccnc42)NC3)CC1 (single isomer, unassigned)
IC50 [5]: 6.8 µM
